Target: His-tagged recombinant human Gal-3 (hGal-3) (Homo sapiens, UniProt P17931)
Test: Gal-3 HTRF assay: His-tagged hGal-3 binding to B-ASF, Anti-His terbium antibody / Streptavidin d2 detection;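 further: compound preincubated 30 min with hGal-3, then 1 h with B-ASF, DMSO wells with B-ASF serving as positive control and those lacking B-ASF as negative control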
Settings: 15 nM hGal-3, 15 nM B-ASF, three replicates, room temperature

Chain of His-tagged recombinant human Gal-3 (hGal-3) (P17931 whole entry): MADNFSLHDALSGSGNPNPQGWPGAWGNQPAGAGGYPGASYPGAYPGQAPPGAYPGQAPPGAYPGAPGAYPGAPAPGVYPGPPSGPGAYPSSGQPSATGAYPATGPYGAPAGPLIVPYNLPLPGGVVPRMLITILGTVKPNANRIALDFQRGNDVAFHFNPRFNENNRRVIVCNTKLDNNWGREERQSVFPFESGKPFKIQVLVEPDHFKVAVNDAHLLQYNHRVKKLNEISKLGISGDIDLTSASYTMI

| IC50 | Structure (SMILES) |
| --- | --- |
| 67 nM | COC1C(SC2CNCC(n3cc(-c4cccc(F)c4)nn3)C2O)OC(CO)C(O)C1n1cc(-c2cc(F)c(F)c(F)c2)nn1 (centres unmarked) [Example B1] |
| 15 nM | O=C(O)COC1C(SC2COCC(n3cc(-c4cncnc4)nn3)C2O)OC(CO)C(O)C1n1cc(-c2cc(F)c(F)c(F)c2)nn1 [Example 26, 2-(((2S,3R,4S,5R,6R)-5-hydroxy-2-(((3R,4R,5S)-4-hydroxy-5-(4-(pyrimidin-5-yl)-1H-1,2,3-triazol-1-yl)tetrahydro-2H-pyran-3-yl)thio)-6-(hydroxymethyl)-4-(4-(3,4,5-trifluorophenyl)-1H-1,2,3-triazol-1-yl)tetranydro-2H-pyran-3-yl)oxy)acetic acid] |
| 24 nM | COc1ncc(-c2cn([C@H]3COC[C@@H](S[C@@H]4O[C@H](CO)[C@H](O)[C@H](n5cc(-c6cc(F)c(F)c(F)c6)nn5)[C@H]4OCC(=O)N4CC(O)C4)[C@@H]3O)nn2)cn1 [Example 34, 2-(((2S,3R,4S,5R,6R)-5-hydroxy-2-(((3R,4R,5S)-4-hydroxy-5-(4-(2-methoxypyrimidin-5-yl)-1H-1,2,3-triazol-1-yl)tetrahydro-2H-pyran-3-yl)thio)-6-(hydroxymethyl)-4-(4-(3,4,5-trifluorophenyl)-1H-1,2,3-triazol-1-yl)tetrahydro-2H-pyran-3-yl)oxy)-1-(3-hydroxyazetidin-1-yl)ethan-1-one] |
| 17 nM | COC(=O)COC1C(SC2COCC(n3cc(-c4cncnc4)nn3)C2O)OC(CO)C(O)C1n1cc(-c2cc(F)c(F)c(F)c2)nn1 [Example 27, methyl 2-(((2S,3R,4S,5R,6R)-5-hydroxy-2-(((3R,4R,5S)-4-hydroxy-5-(4-(pyriin-5-yl)-1H-1,2,3-triazol-1-yl)tetrahydro-2H-pyran-3-yl)thio)-6-(hydroxymethyl)-4-(4-(3,4,5-trifluorophenyl)-1H-1,2,3-triazol-1-yl)tetrahydro-2H-pyran-3-yl)oxy)acetate] |
| 13 nM | COc1ncc(-c2cn([C@H]3COC[C@@H](S[C@@H]4O[C@H](CO)[C@H](O)[C@H](n5cc(-c6cc(F)c(F)c(F)c6)nn5)[C@H]4OCC(=O)N4CCOCC4)[C@@H]3O)nn2)cn1 [Example 31, 2-(((2S,3R,4S,5R,6R)-5-hydroxy-2-(((3R,4R,5S)-4-hydroxy-5-(4-(2-methoxypyrimidin-5-yl)-1H-1,2,3-triazol-1-yl)tetrahydro-2H-pyran-3-yl)thio)-6-(hydroxymethyl)-4-(4-(3,4,5-trifluorophenyl)-1H-1,2,3-triazol-1-yl)tetrahydro-2H-pyran-3-yl)oxy)-1-morpholinoethan-1-one] |
| 26 nM | CO[C@@H]1[C@@H](n2cc(-c3cccc(F)c3)nn2)[C@@H](O)[C@@H](CO)O[C@H]1S[C@@H]1COC[C@H](n2cc(-c3ccccc3)nn2)[C@H]1O [Example A4, (2R,3R,4S,5R,6S)-4-(4-(3-fluorophenyl)-1H-1,2,3-triazol-1-yl)-6-(((3R,4R,5S)-4-hydroxy-5-(4-phenyl-1H-1,2,3-triazol-1-yl)tetrahydro-2H-pyran-3-yl)thio)-2-(hydroxymethyl)-5-methoxytetrahydro-2H-pyran-3-ol] |
| 570 nM | COc1c(F)c(F)c(C(=O)N[C@H]2[C@@H](O)[C@@H](CO)O[C@@H](S[C@@H]3COC[C@H](n4cc(-c5ccccc5)nn4)[C@H]3O)[C@@H]2OC)c(F)c1F [Example A13, 2,3,5,6-tetrafluoro-N-((2R,3R,4S,5R,6S)-3-hydroxy-6-(((3R,4R,5S)-4-hydroxy-5-(4-phenyl-1H-1,2,3-triazol-1-yl)tetrahydro-2H-pyran-3-yl)thio)-2-(hydroxymethyl)-5-methoxytetrahydro-2H-pyran-4-yl)-4-methoxybenzamide] |
| 19 nM | COc1ncc(-c2cn(C3COCC(SC4OC(CO)C(O)C(n5cc(-c6cc(F)c(F)c(F)c6)nn5)C4OCC(=O)N4CC(C)OC(C)C4)C3O)nn2)cn1 (single isomer, unassigned) [Example 32] |
| 11000 nM | CO[C@@H]1[C@@H](n2cc(-c3ccc(-c4ccccc4)cc3)nn2)[C@@H](O)[C@@H](CO)O[C@H]1S[C@@H]1COC[C@H](n2cc(-c3ccccc3)nn2)[C@H]1O [Example A3, (2R,3R,4S,5R,6S)-4-(4-([1,1′-biphenyl]-4-yl)-1H-1,2,3-triazol-1-yl)-6-(((3R,4R,5S)-4-hydroxy-5-(4-phenyl-1H-1,2,3-triazol-1-yl)tetrahydro-2H-pyran-3-yl)thio)-2-(hydroxymethyl)-5-methoxytetrahydro-2H-pyran-3-ol] |
| 32 nM | COc1ncc(-c2cn([C@H]3COC[C@@H](S[C@@H]4O[C@H](CO)[C@H](O)[C@H](n5cc(-c6cc(F)c(F)c(F)c6)nn5)[C@H]4OCC(=O)N4CCC4)[C@@H]3O)nn2)cn1 [Example 35, 1-(azetidin-1-yl)-2-(((2S,3R,4S,5R,6R)-5-hydroxy-2-(((3R,4R,5S)-4-hydroxy-5-(4-(2-methoxypyrimidin-5-yl)-1H-1,2,3-triazol-1-yl)tetrahydro-2H-pyran-3-yl)thio)-6-(hydroxymethyl)-4-(4-(3,4,5-trifluorophenyl)-1H-1,2,3-triazol-1-yl)tetrahydro-2H-pyran-3-yl)oxy)ethan-1-one] |
| 490 nM | CO[C@@H]1[C@@H](n2cc(-c3nccs3)nn2)[C@@H](O)[C@@H](CO)O[C@H]1S[C@@H]1COC[C@H](n2cc(-c3ccccc3)nn2)[C@H]1O [Example A5, (2R,3R,4S,5R,6S)-6-(((3R,4R,5S)-4-hydroxy-5-(4-phenyl-1H-1,2,3-triazol-1-yl)tetrahydro-2H-pyran-3-yl)thio)-2-(hydroxymethyl)-5-methoxy-4-(4-(thiazol-2-yl)-1H-1,2,3-triazol-1-yl)tetrahydro-2H-pyran-3-ol] |
| 360 nM | CO[C@@H]1[C@@H](n2cc(-c3cncnc3)nn2)[C@@H](O)[C@@H](CO)O[C@H]1S[C@@H]1COC[C@H](n2cc(-c3ccccc3)nn2)[C@H]1O [Example A6, (2R,3R,4S,5R,6S)-6-(((3R,4R,5S)-4-hydroxy-5-(4-phenyl-1H-1,2,3-triazol-1-yl)tetrahydro-2H-pyran-3-yl)thio)-2-(hydroxymethyl)-5-methoxy-4-(4-(pyrimidin-5-yl)-1H-1,2,3-triazol-1-yl)tetrahydro-2H-pyran-3-ol] |
| 10 nM | O=C(CO[C@@H]1[C@@H](n2cc(-c3cc(F)c(F)c(F)c3)nn2)[C@@H](O)[C@@H](CO)O[C@H]1S[C@@H]1COC[C@H](n2cc(-c3cncnc3)nn2)[C@H]1O)N1CCOCC1 [Example 28, 2-(((2S,3R,4S,5R,6R)-5-hydroxy-2-(((3R,4R,5S)-4-hydroxy-5-(4-(pyrimidin-5-yl)-1H-1,2,3-triazol-1-yl)tetrahydro-2H-pyran-3-yl)thio)-6-(hydroxymethyl)-4-(4-(3,4,5-trifluorophenyl)-1H-1,2,3-triazol-1-yl)tetrahydro-2H-pyran-3-yl)oxy)-1-morpholinoethan-1-one] |
| 37 nM | COC1C(SC2CN(C(C)=O)CC(n3cc(-c4cccc(F)c4)nn3)C2O)OC(CO)C(O)C1n1cc(-c2cc(F)c(F)c(F)c2)nn1 (centres unmarked) [Example B2] |
| 1240 nM | CO[C@@H]1[C@@H](n2cc(-c3ccnnc3)nn2)[C@@H](O)[C@@H](CO)O[C@H]1S[C@@H]1COC[C@H](n2cc(-c3ccccc3)nn2)[C@H]1O [Example A9, (2R,3R,4S,5R,6S)-6-(((3R,4R,5S)-4-hydroxy-5-(4-phenyl-1H-1,2,3-triazol-1-yl)tetrahydro-2H-pyran-3-yl)thio)-2-(hydroxymethyl)-5-methoxy-4-(4-(pyridazin-4-yl)-1H-1,2,3-triazol-1-yl)tetrahydro-2H-pyran-3-ol] |
| 1100 nM | CO[C@@H]1[C@@H](n2cc(-c3cccnc3)nn2)[C@@H](O)[C@@H](CO)O[C@H]1S[C@@H]1COC[C@H](n2cc(-c3ccccc3)nn2)[C@H]1O [Example A1, (2R,3R,4S,5R,6S)-6-(((3R,4R,5S)-4-hydroxy-5-(4-phenyl-1H-1,2,3-triazol-1-yl)tetrahydro-2H-pyran-3-yl)thio)-2-(hydroxymethyl)-5-methoxy-4-(4-(pyridin-3-yl)-1H-1,2,3-triazol-1-yl)tetrahydro-2H-pyran-3-ol] |
| 1400 nM | CO[C@@H]1[C@@H](NC(=O)c2cc(F)c(F)c(F)c2)[C@@H](O)[C@@H](CO)O[C@H]1S[C@@H]1COC[C@H](n2cc(-c3ccccc3)nn2)[C@H]1O [Example A12, 3,4,5-trifluoro-N-((2R,3R,4S,5R,6S)-3-hydroxy-6-(((3R,4R,5S)-4-hydroxy-5-(4-phenyl-1H-1,2,3-triazol-1-yl)tetrahydro-2H-pyran-3-yl)thio)-2-(hydroxymethyl)-5-methoxytetrahydro-2H-pyran-4-yl)benzamide] |
| 170 nM | CO[C@@H]1[C@@H](n2cc(-c3ccc4nccnc4c3)nn2)[C@@H](O)[C@@H](CO)O[C@H]1S[C@@H]1COC[C@H](n2cc(-c3ccccc3)nn2)[C@H]1O [Example A8, (2R,3R,4S,5R,6S)-6-(((3R,4R,5S)-4-hydroxy-5-(4-phenyl-1H-1,2,3-triazol-1-yl)tetrahydro-2H-pyran-3-yl)thio)-2-(hydroxymethyl)-5-methoxy-4-(4-(quinoxalin-6-yl)-1H-1,2,3-triazol-1-yl)tetrahydro-2H-pyran-3-ol] |
| 330 nM | CO[C@@H]1[C@@H](n2cc(-c3ccc4ccccc4c3)nn2)[C@@H](O)[C@@H](CO)O[C@H]1S[C@@H]1COC[C@H](n2cc(-c3ccccc3)nn2)[C@H]1O [Example A10, (2R,3R,4S,5R,6S)-6-(((3R,4R,5S)-4-hydroxy-5-(4-phenyl-1H-1,2,3-triazol-1-yl)tetrahydro-2H-pyran-3-yl)thio)-2-(hydroxymethyl)-5-methoxy-4-(4-(naphthalen-2-yl)-1H-1,2,3-triazol-1-yl)tetrahydro-2H-pyran-3-ol] |
| 1860 nM | COC(=O)C12CCC(c3cn(C4C(O)C(CO)OC(SC5COCC(n6cc(-c7ccccc7)nn6)C5O)C4OC)nn3)(CC1)CC2 [Example A11, methyl 4-(1-((2R,3R,4S,5R,6S)-3-hydroxy-6-(((3R,4R,5S)-4-hydroxy-5-(4-phenyl-1H)-1,2,3-triazol-1-yl)tetrahydro-2H-pyran-3-yl)thio)-2-(hydroxymethyl)-5-methoxytetrahydro-2H-pyran-4-yl)-1H-1,2,3-triazol-4-yl)bicyclo[2.2.2]octane-1-carboxylate] |

Reference: US11970511B2, “Tetrahydropyran-based thiodisaccharide mimics as Galectin-3 inhibitors” (BRISTOL-MYERS SQUIBB COMPANY, priority 2018, dated 2024)
